Data from patent publication US20050004177A1, “Combination of an allosteric inhibitor of matrix metalloproteinase-13 and a ligand to an alpha-2-delta receptor” (WARNER-LAMBERT COMPANY LLC, priority 2003, published 2005).

- melting point: 195 to 198 °C
SMILES: O=C(O)c1ccc(Cn2nnc(-c3cccc(C#CCc4ccccc4)c3)n2)cc1 [Preparation 2, 4-{5-[3-(3-Phenyl-prop-1-ynyl)-phenyl]-tetrazol-2-ylmethyl}-benzoic acid]
